Target: T1, human Cystic Fibrosis Transmembrane Conductance Regulator (CFTR) harboring the ΔF508 mutation (Homo sapiens, UniProt P13569, DEL508-508)
T1 construct: expressed in transfected cells; host or cells: H441 carcinoma line (G418-selected)
Test: H441 cell ΔF508-CFTR-HRP cell surface assay (Emax and EC50)
Type: cell-based
Details: for Emax: NCI-H441, NA = Not active
Description: Example 315: H441 Cell Emax and EC50 Two cell lines were used, the H441 carcinoma line and the CFHBE41o- (41o-) human bronchial epithelial line. Both cell lines expressed human Cystic Fibrosis Transmembrane Conductance Regulator (CFTR) harboring the ΔF508 mutation and with an in-frame fusion in CFTR extracellular loop 4 of Horse Radish Peroxidase (HRP) under control of the CMV promoter. In the presence of the HRP tag, ΔF508-CFTR transported to the cell surface was detectable upon addition of an HRP substrate (Luminata Forte). Both cell types were cultivated at 37° C. with CO2. […] For both cell types, the medium was changed every other day unless the culture was at low % confluence. Cells were used for the assays at 75% confluence. To a polypropylene (PP) 384-well plate, 15 pls DMSO was added to all wells in columns 1-22 and 24 (low Control). 15 μls of 260 μM VX809 (Lumacaftor), Selleckchem […], was added to column 23 wells (high Control). 15 pls of 10 mM test compound or VX809 (control) were added to wells of row A. Serial dilutions of Row A compound were performed 2×15 pls in rows A through 0 (15-point). A PP, 384-well plate containing the appropriate cell culture medium was prepared for each assay plate with 100 pls per well. For the doxycycline-induced 41o-cells, doxycycline for both the assay plate and the medium dilution plate was added at 0.0005 mg/ml to the medium. Both cell lines were plated for the assay at 30 pls per 384-well at 3.4×10 e^5 cells per ml ( 10K cells/well). H441 cells were plated on opaque, white, Corning plate 3704. 41o-cells were plated on collagen-coated opaque, white, Corning plate 356665. For 41o-cells, doxycycline was added to the medium. Using FX (Beckman) protocol, 10 pls diluted compound or medium was added per well to the Assay Plate as: 2 pls DMSO Dilution plate well was diluted in 100 pls of the Medium Dilution Plate well, mixed, and 10 pls was transferred to the Assay Plate. The final assay dilution series was 24.5, 12.3, 6.1, 3.1, 1.5, 0.8, 0.4, 0.2, 0.1, 0.05, 0.02, 0.01, 0.006, 0.003, 0.001 and 0 μM. The 41o-assay plates were incubated at 37° C. w/CO2, the H441 assay plates were incubated at 27° C. w/CO2, each overnight for two nights. After being brought to room temperature, the assay plate liquid was removed. 30 uls of Luminata Forte (Millipore ELLUF0100) was added per well and incubated at room temperature for 10 min. The plates were then read on a Topcount, protocol LumiMatti (CPS, luminescence). The data was analyzed for % of maximum, maximum VX809 signal, and EC50 using Pearl and SPEED tools.

T1 sequence (P13569 with tags, fused parts or gaps DEL508-508): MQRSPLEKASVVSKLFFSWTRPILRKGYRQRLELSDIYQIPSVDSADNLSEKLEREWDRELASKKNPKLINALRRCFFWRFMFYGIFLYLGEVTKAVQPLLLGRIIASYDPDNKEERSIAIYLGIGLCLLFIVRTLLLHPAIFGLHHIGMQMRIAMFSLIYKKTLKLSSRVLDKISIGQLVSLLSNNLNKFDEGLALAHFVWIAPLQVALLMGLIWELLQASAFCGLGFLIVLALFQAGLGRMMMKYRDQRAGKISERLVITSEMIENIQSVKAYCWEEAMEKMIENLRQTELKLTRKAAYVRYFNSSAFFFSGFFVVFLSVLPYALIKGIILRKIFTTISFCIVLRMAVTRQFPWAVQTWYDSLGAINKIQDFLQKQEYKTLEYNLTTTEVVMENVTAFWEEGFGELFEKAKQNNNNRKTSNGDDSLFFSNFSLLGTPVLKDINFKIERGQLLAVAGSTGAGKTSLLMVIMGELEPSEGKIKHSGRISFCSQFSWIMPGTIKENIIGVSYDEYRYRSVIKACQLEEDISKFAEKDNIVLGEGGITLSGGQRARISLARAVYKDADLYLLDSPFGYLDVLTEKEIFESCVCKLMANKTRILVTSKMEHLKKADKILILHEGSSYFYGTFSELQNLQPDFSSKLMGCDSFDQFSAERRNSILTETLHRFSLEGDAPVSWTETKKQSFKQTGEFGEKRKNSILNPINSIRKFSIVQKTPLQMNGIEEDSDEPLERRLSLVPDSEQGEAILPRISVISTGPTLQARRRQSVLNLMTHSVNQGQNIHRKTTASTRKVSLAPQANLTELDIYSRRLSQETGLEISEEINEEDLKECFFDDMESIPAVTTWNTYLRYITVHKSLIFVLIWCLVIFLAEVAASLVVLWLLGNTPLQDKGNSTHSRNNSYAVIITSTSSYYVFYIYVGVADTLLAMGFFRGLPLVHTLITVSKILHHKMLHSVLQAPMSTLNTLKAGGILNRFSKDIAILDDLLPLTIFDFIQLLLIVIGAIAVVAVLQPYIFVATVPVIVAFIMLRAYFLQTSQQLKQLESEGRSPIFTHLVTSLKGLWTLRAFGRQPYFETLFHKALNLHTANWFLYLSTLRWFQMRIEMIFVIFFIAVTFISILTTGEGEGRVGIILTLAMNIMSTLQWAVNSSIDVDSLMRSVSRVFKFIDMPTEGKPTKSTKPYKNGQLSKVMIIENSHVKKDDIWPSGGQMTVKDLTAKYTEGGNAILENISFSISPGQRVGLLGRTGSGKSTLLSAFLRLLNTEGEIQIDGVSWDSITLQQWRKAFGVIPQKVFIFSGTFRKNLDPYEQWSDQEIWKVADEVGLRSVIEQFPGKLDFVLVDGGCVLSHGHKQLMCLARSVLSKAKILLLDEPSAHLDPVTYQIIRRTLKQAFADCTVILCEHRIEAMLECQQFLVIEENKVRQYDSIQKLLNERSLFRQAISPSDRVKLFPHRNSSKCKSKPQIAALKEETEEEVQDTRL

Structure (SMILES) | EC50 | Emax
COC(=O)[C@H](Cc1ccccc1)NC(=O)c1ccc2ccccc2c1OCc1ccc(Cl)c(Cl)c1 [Example 101, Methyl (1-((3,4-dichlorobenzyl)oxy)-2-naphthoyl)-L-phenylalaninate] | 6.7 µM | 79.1%
C=CCOc1ccc(C[C@H](NC(=O)c2ccc3ccccc3c2OCc2ccc(C(F)(F)F)cc2)C(=O)O)cc1 [Example 92, (S)-3-(4-(allyloxy)phenyl)-2-(1-((4-(trifluoromethyl)benzyl)oxy)-2-naphthamido)propanoic Acid] | 14 µM | 52.6%
O=C(N[C@@H](Cc1ccccc1)C(=O)O)c1ccc2ccccc2c1OCc1ccc(Cl)cc1 [Example 98, (1-((4-chlorobenzyl)oxy)-2-naphthoyl)-L-phenylalanine] |  | 6%
O=C(N[C@H](C(=O)O)C12CC(C(F)(F)F)(C1)C2)c1ccc2ccccc2c1OCc1ccc(S(=O)(=O)C(F)(F)F)cc1 [Example 3, (S)-2-(3-(trifluoromethyl)bicyclo[1.1.1]pentan-1-yl)-2-(1-((4-((trifluoromethyl)sulfonyl)benzyl)oxy)-2-naphthamido)acetic Acid] | 2.2 µM | 18.1%
O=C(N[C@H](C(=O)O)C12CC(C(F)(F)F)(C1)C2)c1ccc2cc(F)ccc2c1OCc1ccc(OC(F)(F)F)cc1 [Example 4, (S)-2-(6-fluoro-1-((4-(trifluoromethoxy)benzyl)oxy)-2-naphthamido)-2-(3-(trifluoromethyl)bicyclo[1.1.1]pentan-1-yl)acetic Acid] | 0.7 µM | 37.2%
CC(C)(c1ccccc1)[C@H](NC(=O)c1ccc2cc(F)ccc2c1OCc1ccc(SC(F)(F)F)cc1)C(=O)O [Example 22, (S)-2-(6-fluoro-1-((4-((trifluoromethyl)thio)benzyl)oxy)-2-naphthamido)-3-methyl-3-phenylbutanoic Acid] | 0.3 µM | 63.6%
CC1(C(NC(=O)c2ccc3cc(F)ccc3c2OCC2CCC(F)(F)CC2)C(=O)O)CCCCC1 (stereo not drawn) [Example 54, 2-(1-((4,4-difluorocyclohexyl)methoxy)-6-fluoro-2-naphthamido)-2-(1-methylcyclohexyl)acetic Acid] | 2.4 µM | 56.1%
CC(C)(C)C[C@H](NC(=O)c1ccc2cc(F)ccc2c1OCc1ccc(SC(F)(F)F)cc1)C(=O)O [Example 117, (S)-2-(6-fluoro-1-((4-((trifluoromethyl)thio)benzyl)oxy)-2-naphthamido)-4,4-dimethylpentanoic Acid] | 1.6 µM | 47%
CC(C)(c1ccccc1)[C@H](NC(=O)c1ccc2ccccc2c1OCc1ccc(S(C)(=O)=O)cc1)C(=O)O [Example 23, (S)-3-methyl-2-(1-((4-(methylsulfonyl)benzyl)oxy)-2-naphthamido)-3-phenylbutanoic Acid] | 9.8 µM | 29.2%
O=C(N[C@@H](Cc1ccccc1)C(=O)O)c1ccc2ccccc2c1OCc1ccc(C(F)(F)F)cc1 [Example 87, (1-((4-(trifluoromethyl)benzyl)oxy)-2-naphthoyl)-L-phenylalanine] | 2.1 µM | 103%
CC(C)(C)C[C@H](NC(=O)c1ccc2ccccc2c1OCc1ccc(OC(F)F)cc1)C(=O)O [Example 108, (S)-2-(1-((4-(difluoromethoxy)benzyl)oxy)-2-naphthamido)-4,4-dimethylpentanoic Acid] |  | 4.7%
CCC(C)(C)[C@H](NC(=O)c1ccc2cc(OC)ccc2c1OCc1ccc(SC(F)(F)F)cc1)C(=O)O [Example 32, (S)-2-(6-methoxy-1-((4-((trifluoromethyl)thio)benzyl)oxy)-2-naphthamido)-3,3-dimethylpentanoic Acid] | 1.5 µM | 44.3%
C=C(C)C1CC=C(COc2c(C(=O)N[C@H](C(=O)O)C(C)(C)C)ccc3ccccc23)CC1 (stereo partly drawn) [Example 49, (2S)-3,3-dimethyl-2-(1-((4-(prop-1-en-2-yl)cyclohex-1-en-1-yl)methoxy)-2-naphthamido)butanoic Acid] | 1.5 µM | 33.5%
CC(C)(C)OC(=O)C[C@H](NC(=O)c1ccc2ccccc2c1OCc1ccc(C(F)(F)F)cc1)C(=O)O (stereo in doubt) [Example 151, 4-(tert-butoxy)-4-oxo-2-(1-((4-(trifluoromethyl)benzyl)oxy)-2-naphthamido)butanoic Acid] | 13.4 µM | 68.7%

The remaining lines, values ahead:

EC50 | Emax | Structure (SMILES)
3.2 µM | 47.7% | COc1ccc2c(OCc3ccc(C(F)(F)F)cc3)c(C(=O)N[C@@H](CC(C)(C)C)C(=O)O)ccc2c1 [Example 161, (S)-2-(6-methoxy-1-((4-(trifluoromethyl)benzyl)oxy)-2-naphthamido)-4,4-dimethylpentanoic Acid]
1.5 µM | 109% | Cc1ccc2ccc(C(=O)N[C@@H](C(=O)O)C(C)(C)C)c(OCc3ccc(OC(F)(F)F)cc3)c2c1 [Example 289, (R)-3,3-dimethyl-2-(7-methyl-1-((4-(trifluoromethoxy)benzyl)oxy)-2-naphthamido)butanoic Acid]
10 µM | 70.7% | CC(C)(C)C[C@H](NC(=O)c1ccc2ccccc2c1OC[C@H]1CC[C@@H](C(F)(F)F)CC1)C(=O)O [Example 180, (S)-4,4-dimethyl-2-(1-(((1s,4R)-4-(trifluoromethyl)cyclohexyl)methoxy)-2-naphthamido)pentanoic Acid]
1.3 µM | 10.5% | CC(Oc1c(C(=O)N[C@@H](Cc2ccccc2)C(=O)O)ccc2ccccc12)c1ccc(C(F)(F)F)cc1 (stereo partly drawn) [Example 124, (1-(1-(4-(trifluoromethyl)phenyl)ethoxy)-2-naphthoyl)-L-phenylalanine]
20.5 µM | 65.4% | O=C(N[C@@H](Cc1ccc(C(F)(F)F)cc1)C(=O)O)c1ccc2ccccc2c1OCC1CCCCC1 [Example 200, (S)-2-(1-(cyclohexylmethoxy)-2-naphthamido)-3-(4-(trifluoromethyl)phenyl)propanoic Acid]
12.2 µM | 166% | CC(C)(C)[C@H](NC(=O)c1ccc2ccccc2c1OCC#CC1CC1)C(=O)O [Example 270, (2S)-2-[[1-(3-cyclopropylprop-2-ynoxy)naphthalene-2-carbonyl]amino]-3,3-dimethyl-butanoic Acid]
20.4 µM | 40.4% | O=C(N[C@H](C(=O)O)C(c1ccccc1)c1ccccc1)c1ccc2ccccc2c1OCc1ccc(Cl)c(Cl)c1 [Example 207, (S)-2-(1-((3,4-dichlorobenzyl)oxy)-2-naphthamido)-3,3-diphenylpropanoic Acid]
15.4 µM | 74% | CC(C)(C)[C@H](NC(=O)c1ccc2ccccc2c1OCC1(C(F)(F)F)CC1)C(=O)O [Example 268, (2S)-3,3-dimethyl-2-[[1-[[1-(trifluoromethyl)cyclopropyl]methoxy]naphthalene-2-carbonyl]amino]butanoic Acid]
 | 6.6% | CC(C)(SCC1CC1(F)F)[C@H](NC(=O)c1ccc2ccccc2c1OCc1ccc(S(C)(=O)=O)cc1)C(=O)O (stereo partly drawn) [Example 166, (2R)-3-(((2,2-difluorocyclopropyl)methyl)thio)-3-methyl-2-(1-((4-(methylsulfonyl)benzyl)oxy)-2-naphthamido)butanoic Acid]
0.4 µM | 71% | O=C(N[C@H](C(=O)O)C(c1ccccc1)c1ccccc1)c1ccc2cc(F)ccc2c1OCc1ccc(Cl)c(Cl)c1 [Example 209, (S)-2-(1-((3,4-dichlorobenzyl)oxy)-6-fluoro-2-naphthamido)-3,3-diphenylpropanoic Acid]
12 µM | 72.6% | Cc1cc(COc2c(C(=O)NC(C(=O)O)[C@@H](C)OCc3ccccc3)ccc3ccccc23)no1 (stereo partly drawn) [Example 145, (3R)-3-(benzyloxy)-2-(1-((5-methylisoxazol-3-yl)methoxy)-2-naphthamido)butanoic Acid]
17.4 µM | 62.2% | C[C@@H](OCc1ccccc1)C(NC(=O)c1ccc2ccccc2c1OCC1CCC(CO)CC1)C(=O)O (stereo partly drawn) [Example 146, (3R)-3-(benzyloxy)-2-(1-((4-(hydroxymethyl)cyclohexyl)methoxy)-2-naphthamido)butanoic Acid]
4.7 µM | 93.5% | CO[C@@H](C)[C@H](NC(=O)c1ccc2ccccc2c1OCc1ccc(C(F)(F)F)cc1)C(=O)O [Example 135, O-methyl-N-(1-((4-(trifluoromethyl)benzyl)oxy)-2-naphthoyl)-L-allothreonine]
